Measured values taken from patent US11142515B2, “Pyrazolyl-ureas as kinase inhibitors” (RESPIVERT LIMITED, priority 2014, dated 2021).

Key:
[1] = biological target: T1, p38 MAPKα isoform (MAPK14) (Homo sapiens, UniProt Q16539); experiment: p38 MAPKα enzyme inhibition (Z-LYTE FRET); assay type: biochemical; conditions: Table 2A; read-out: IC50 Values for Enzyme Inhibition p38 MAPKα
T1 construct: purchased Life Technologies
How it was run: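 Recombinant human MAPK14 (40 ng/mL stock) was preincubated 2 h at RT with compound (stock dilutions 0.0012-40 μg/mL). The Z-LYTE FRET read-out used a MAPKAP-K2-derived peptide, and protease development for 1 h cleaved only non-phosphorylated peptide. Phosphorylation was calculated from the coumarin/fluorescein emission ratio.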

Hck = biological target: T2, Hck (Homo sapiens, UniProt P08631); experiment: Hck enzyme inhibition (Z-LYTE FRET); assay type: biochemical; conditions: Table 2A
T2 construct: purchased Life Technologies
Protocol: (§1) The enzyme inhibitory activities of compounds disclosed herein were determined by FRET using synthetic peptides labelled with both donor and acceptor fluorophores (Z-LYTE, Life Technologies, Paisley, UK).
The relevant enzyme (1000 ng/mL, 1400 ng/mL or 2000 ng/mL respectively, 2.5 μL) was incubated with the test compound (either 40 μg/mL, 12 μg/mL, 4 μg/mL, 1.2 μg/mL, 0.4 μg/mL, 0.12 μg/mL, 0.04 μg/mL, 0.012 μg/mL, 0.004 μg/mL or 0.0012 μg/mL, 2.5 μL each) for 2 h at RT. The FRET peptides (8 μM, 2.5 μL), and appropriate ATP solutions (2.5 μL, 800 μM for c-Src, and 60 μM ATP for HCK and Syk) were then added to the enzyme/compound mixtures and incubated for 1 h at RT. Development reagent (protease, 5 μL) was added for 1 h prior to detection in a fluorescence microplate reader (EnVision, Perkin Elmer).
(§2) In all cases, the site-specific protease cleaves non-phosphorylated peptide only and eliminates the FRET signal. Phosphorylation levels of each reaction were calculated using the ratio of coumarin emission (donor) over fluorescein emission (acceptor), for which low ratios indicate high phosphorylation and high ratios indicate low phosphorylation levels.

GSK 3α enzyme isoform = biological target: T3, GSK 3α enzyme isoform (Homo sapiens, UniProt P49840); experiment: GSK 3α enzyme inhibition (Z-LYTE FRET); assay type: biochemical; conditions: Table 2A; read-out: IC50 Values for Enzyme Inhibition GSK3α
T3 construct: purchased Life Technologies
Protocol: as §1
The GSK3a protein (500 ng/mL, 2.5 μL) was incubated with the test compound (2.5 μL at either 40 μg/mL, 12 μg/mL, 4 μg/mL, 1.2 μg/mL, 0.4 μg/mL, 0.12 μg/mL, 0.04 μg/mL, 0.012 μg/mL, 0.004 μg/mL or 0.0012 μg/mL) for 2 h at RT. The FRET peptide (8 μM, 2.5 μL), which is a phosphorylation target for GSK3α, and ATP (40 μM, 2.5 μL) was then added to the enzyme/compound mixture and the resulting mixture incubated for 1 h at RT. Development reagent (protease, 5 μL) was added for 1 h prior to detection in a fluorescence microplate reader (EnVision, Perkin Elmer).
as §2

[2] = tested on: IL-8 release in d-U937 cells; experiment: LPS-induced IL-8 release in d-U937 cells; assay type: cell-based; conditions: Homo sapiens, dU937, LPS 0.1 μg/mL 4 h
Protocol: (§3) U937 cells, a human monocytic cell line, were differentiated into macrophage-type cells by incubation with PMA (100-200 ng/mL) for 48 to 72 h. Cells were pre-incubated with final […] concentrations of test compound for 2 h and were then stimulated with LPS (0.1 μg/mL; from E. coli: O111:B4, Sigma) for 4 h. The supernatant was collected for determination of TNFα and IL-8 concentrations by sandwich ELISA (Duo-set, R&D systems). […] The relative 50% effective concentration (REC50) was determined from the resultant concentration-response curve. The inhibition of IL-8 production was calculated at each concentration of test compound by comparison with vehicle control.

[3] = tested on: TNFα release in d-U937 cells; experiment: LPS-induced TNFα release in d-U937 cells; assay type: cell-based; conditions: Homo sapiens, dU937; read-out: LPS Induced Release TNFα REC50 (dU937); also: relative to 10 µg/mL BIRB-796
Protocol: as §3

[4] = tested on: ICAM-1 expression in BEAS2B cells; experiment: Poly I:C-induced ICAM-1 expression in BEAS2B cells; assay type: cell-based; conditions: Homo sapiens, BEAS-2B, read-out: PolyIC/ICAM1 IC50 (BEAS2B)
Protocol: Poly I:C was used in these studies as a simple, RNA virus mimic. Poly I:C-Oligofectamine mixture (2% Oligofectamine±1 μg/mL Poly I:C, 25 μL; Life Technologies and Invivogen Ltd., San Diego, Calif., respectively) was transfected into BEAS2B cells (human bronchial epithelial cells, ATCC). Cells were pre-incubated with final concentrations of test compounds for 2 h and the level of ICAM-1 expression on the cell surface was determined by cell-based ELISA. At a time point 18 h after poly I:C transfection, cells were fixed with 4% formaldehyde in PBS (100 μL) and then endogenous peroxidase was quenched by the addition of washing buffer (100 μL, 0.05% Tween in PBS: PBS-Tween) containing 0.1% sodium azide and 1% hydrogen peroxide. Cells were washed with wash-buffer (3×200 μL). After blocking the wells with 5% milk in PBS-Tween (100 μL) for 1 h, the cells were incubated with anti-human ICAM-1 antibody (50 μL; Cell Signaling Technology, Danvers, Mass.) in 1% BSA PBS overnight at 4° C.
The cells were washed with PBS-Tween (3×200 μL) and incubated with the secondary antibody (100 μL; HRP-conjugated anti-rabbit IgG, Dako Ltd., Glostrup, Denmark). The cells were then incubated with of substrate (50 μL) for 2-20 min, followed by the addition of stop solution (50 μL, 1N H2SO4). The ICAM-1 signal was detected by reading the absorbance at 450 nm against a reference wavelength of 655 nm using a spectrophotometer. The cells ware then washed with PBS-Tween (3×200 μL) and total cell numbers in each well were determined by reading absorbance at 595 nm after Crystal Violet staining (50 μL of a 2% solution in PBS) and elution by 1% SDS solution (100 μL) in PBS. The measured OD 450-655 readings were corrected for cell number by dividing with the OD595 reading in each well. The inhibition of ICAM-1 expression was calculated at each concentration of test compound by comparison with vehicle control.

T1 sequence (Q16539 whole entry, canonical isoform): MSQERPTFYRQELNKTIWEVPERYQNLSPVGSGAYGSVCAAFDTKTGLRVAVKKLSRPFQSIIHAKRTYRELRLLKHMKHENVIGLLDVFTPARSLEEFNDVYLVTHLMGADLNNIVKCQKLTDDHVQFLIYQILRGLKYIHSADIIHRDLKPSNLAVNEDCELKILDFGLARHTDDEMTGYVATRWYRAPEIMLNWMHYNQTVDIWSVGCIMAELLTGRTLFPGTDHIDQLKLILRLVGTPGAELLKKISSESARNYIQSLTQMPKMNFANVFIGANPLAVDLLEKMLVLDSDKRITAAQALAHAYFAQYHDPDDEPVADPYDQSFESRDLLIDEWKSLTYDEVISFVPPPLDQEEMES
T3 sequence (P49840 whole entry, canonical isoform): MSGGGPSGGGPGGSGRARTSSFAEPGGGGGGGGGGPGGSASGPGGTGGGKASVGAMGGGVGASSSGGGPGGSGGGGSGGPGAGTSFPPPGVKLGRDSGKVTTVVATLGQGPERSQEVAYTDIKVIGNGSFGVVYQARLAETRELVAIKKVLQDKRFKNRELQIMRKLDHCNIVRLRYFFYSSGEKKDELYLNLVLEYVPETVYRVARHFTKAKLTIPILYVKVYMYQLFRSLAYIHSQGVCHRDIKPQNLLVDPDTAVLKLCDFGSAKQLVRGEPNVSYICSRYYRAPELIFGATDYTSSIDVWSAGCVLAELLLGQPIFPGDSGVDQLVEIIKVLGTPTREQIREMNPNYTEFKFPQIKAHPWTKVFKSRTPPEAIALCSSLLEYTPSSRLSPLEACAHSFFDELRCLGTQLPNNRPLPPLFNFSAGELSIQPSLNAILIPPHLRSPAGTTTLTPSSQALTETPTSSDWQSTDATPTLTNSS
T2 sequence (P08631 22-526): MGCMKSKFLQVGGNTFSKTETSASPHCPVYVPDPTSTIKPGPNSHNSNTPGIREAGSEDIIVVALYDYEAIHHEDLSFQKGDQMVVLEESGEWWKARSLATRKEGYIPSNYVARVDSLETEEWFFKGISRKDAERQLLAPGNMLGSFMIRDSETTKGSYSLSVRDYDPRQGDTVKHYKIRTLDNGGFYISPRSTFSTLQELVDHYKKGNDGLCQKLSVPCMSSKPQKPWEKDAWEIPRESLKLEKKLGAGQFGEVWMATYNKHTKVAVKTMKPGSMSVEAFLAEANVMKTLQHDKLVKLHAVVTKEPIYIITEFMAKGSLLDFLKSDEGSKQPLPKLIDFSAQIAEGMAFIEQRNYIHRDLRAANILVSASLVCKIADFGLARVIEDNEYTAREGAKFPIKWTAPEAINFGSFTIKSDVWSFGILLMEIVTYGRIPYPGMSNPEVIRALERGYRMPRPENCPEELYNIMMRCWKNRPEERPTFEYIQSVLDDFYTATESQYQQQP

SMILES | IC50 [1] [µM] | IC50 (Hck) [µM] | IC50 (GSK 3α enzyme isoform) [µM] | IC50 [2] [µM] | EC50 [3] [µM] | IC50 [4] [µM]
Cc1ccc(-n2nc(C(C)(C)C)cc2NC(=O)Nc2ccc(OCc3ccnc(Nc4cnc(C5CC5)cn4)c3)c3ccccc23)cc1 [Example 16] | 0.087 | 0.355 | > 15.7 | 0.0896 | 0.144 | > 1.56
Cc1ccc(-n2nc(C(C)(C)C)cc2NC(=O)Nc2ccc(OCc3ccnc(Nc4cnc(C(=O)NCCN5CCOCC5)cn4)c3)c3ccccc23)cc1 [Example 17] | 0.008 | 0.017 | 2.82 | 0.0165 | 0.0127 | 0.433
COc1cncc(Nc2cc(COc3ccc(NC(=O)Nc4cc(C(C)(C)C)nn4-c4ccc(C)cc4)c4ccccc34)ccn2)n1 [Example 18] | 0.013 | 0.041 | 9.17 | 0.0021 | 0.0026 | 0.0978
Cc1ccc(-n2nc(C(C)(C)C)cc2NC(=O)Nc2ccc(OCc3ccnc(Nc4cnc(C)cn4)c3)c3ccccc23)cc1 [Example 19] | 0.013 | 0.053 | > 16.3 | 0.0014 | 0.0132 | 0.34
Cc1ccc(-n2nc(C(C)(C)C)cc2NC(=O)Nc2ccc(OCc3ccnc(Nc4cncc(C)n4)c3)c3ccccc23)cc1 [Example 20] | 0.015 | 0.052 | 9.04 | 0.0013 | 0.0013 | 0.152
Cc1ccc(-n2nc(C(C)(C)C)cc2NC(=O)Nc2ccc(OCc3ccnc(Nc4cncc(CO)n4)c3)c3ccccc23)cc1 [Example 21] | 0.005 | 0.012 | 1.58 | 0.0079 | 0.0006 | 0.0765
COc1ccc(-n2nc(C(C)(C)C)cc2NC(=O)Nc2ccc(OCc3ccnc(Nc4cncc(C5CC5)n4)c3)c3ccccc23)cc1 [Example 22] | 0.022 | 0.014 | 1.71 | 0.0016 | 0.0021 | 0.0196
COc1ccc(-n2nc(C(C)(C)C)cc2NC(=O)Nc2ccc(OCc3ccnc(Nc4cnc(CO)cn4)c3)c3ccccc23)cc1 [Example 23] | 0.004 | 0.013 | 0.626 | 0.0062 | 0.0031 | 0.0335
Cc1ccc(-n2nc(C(C)(C)C)cc2NC(=O)Nc2ccc(OCc3ccnc(Nc4cncc(C5CC5)n4)c3)c3ccccc23)s1 [Example 24] | 0.038 | 0.018 | 1.13 | 0.0045 | 0.0031 | 0.0551
CC(C)(C)c1cc(NC(=O)Nc2ccc(OCc3ccnc(Nc4cncc(C5CC5)n4)c3)c3ccccc23)n(-c2ccc(CO)cc2)n1 [Example 25] | 0.007 | 0.005 | 0.523 | 0.0058 | 0.0014 | 0.0131
Cc1ccc(-n2nc(C(C)(C)C)cc2NC(=O)Nc2ccc(OCc3ccnc(Nc4cnc(CO)cn4)c3)c3ccccc23)s1 [Example 26] | 0.007 | 0.02 | 0.469 | 0.0146 | 0.0045 | 0.973
Cc1cc(-n2nc(C(C)(C)C)cc2NC(=O)Nc2ccc(OCc3ccnc(Nc4cncc(C5CC5)n4)c3)c3ccccc23)cs1 [Example 27] | 0.017 | 0.013 | 1.03 | 0.004 | 0.0043 | 0.0712
CNC(=O)Cc1cncc(Nc2cc(COc3ccc(NC(=O)Nc4cc(C(C)(C)C)nn4-c4ccc(C)cc4)c4ccccc34)ccn2)n1 [Example 28] | 0.005 | 0.011 | 5.17 | 0.0299 | 0.0027 | 0.0755
Cc1ccc(-n2nc(C(C)(C)C)cc2NC(=O)Nc2ccc(OCc3ccnc(Nc4cnc(CC(=O)N(C)C)cn4)c3)c3ccccc23)cc1 [Example 29] | 0.005 | 0.01 | 0.207 | 0.0085 | 0.0042 | 0.043
Cc1ccc(-n2nc(C(C)(C)C)cc2NC(=O)Nc2ccc(OCc3ccnc(Nc4cnc(CC(N)=O)cn4)c3)c3ccccc23)cc1 [Example 30] | 0.002 | 0.006 | 1.49 | 0.0069 | 0.0052 | 0.115
Cc1ccc(-n2nc(C(C)(C)C)cc2NC(=O)Nc2ccc(OCc3ccnc(Nc4cncc(CC(N)=O)n4)c3)c3ccccc23)cc1 [Example 32] | 0.003 | 0.007 | 1.32 | 0.015 | 0.013 | 0.0656
CNC(=O)Cc1cnc(Nc2cc(COc3ccc(NC(=O)Nc4cc(C(C)(C)C)nn4-c4ccc(C)cc4)c4ccccc34)ccn2)cn1 [Example 33] | 0.003 | 0.011 | 5.96 | 0.0424 | 0.0026 | 0.15
CC(C)(C)c1cc(NC(=O)Nc2ccc(OCc3ccnc(Nc4cncc(C5CC5)n4)c3)c3ccccc23)n(-c2ccc(O)cc2)n1 [Example 34] | 0.013 | 0.007 | 1.2 | 0.0083 | 0.0054 | 0.0411
Cc1ccc(-n2nc(C(C)(C)C)cc2NC(=O)Nc2ccc(OCc3ccnc(Nc4cnc(C(=O)N5CCOCC5)cn4)c3)c3ccccc23)cc1 [Example 35] | 0.009 | 0.042 | 3.43 | 0.102 | 0.0121 | 0.113
Cc1ccc(-n2nc(C(C)(C)C)cc2NC(=O)Nc2ccc(OCc3ccnc(Nc4cnc(C(=O)N5CCCC5)cn4)c3)c3ccccc23)cc1 [Example 36] | 0.019 | 0.048 | > 13.8 | 0.0028 | 0.0016 | 0.188
CCc1cnc(Nc2cc(COc3ccc(NC(=O)Nc4cc(C(C)(C)C)nn4-c4ccc(C)cc4)c4ccccc34)ccn2)cn1 [Example 37] | 0.024 | 0.142 | > 10 | 0.0193 | 0.0143 | 0.611
